{"source": "patent US10800772B2", "about": "(Gilead Sciences, Inc., priority 2016, dated 2020)", "key": {"HIV-IIIb IN T174I DE": {"test_system": "HIV-IIIb IN T174I DE", "assay": "Antiviral assay in MT4 cells, HIV-IIIb IN T174I DE virus (from dose escalation passaging)", "type": "cell-based, HIV-1", "conditions": "Human immunodeficiency virus 1, IIIB, MT4, 120 h, read-out: T174I DE EC50, MT4 cells, HIV-IIIb IN T174I DE (dose escalation), 5 days, CellTiter-Glo", "how_it_was_run": "(§1)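 Compounds were titrated as 3-fold serial dilutions at 10 concentrations, in quadruplicate, against 2000 MT4 cells/well that had been infected for 3 h with HIV-IIIb at 0.004 m.o.i. Viruses were wildtype or integrase T174I mutants from breakthrough selection or dose-escalation passaging; mock-infected cells were run in parallel. After 5 days' culture, EC50 was derived as 50% reduction of CellTiter-Glo luminescence, which reflects HIV-1 replication.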"}, "HIV-IIIb (wildtype)": {"test_system": "HIV-IIIb (wildtype)", "assay": "Antiviral assay in MT4 cells, HIV-IIIb wildtype", "type": "cell-based, HIV-1", "conditions": "read-out: WT EC50", "how_it_was_run": "as §1"}, "HIV-IIIb IN T174I BT": {"test_system": "HIV-IIIb IN T174I BT", "assay": "Antiviral assay in MT4 cells, HIV-IIIb IN T174I BT virus (from viral breakthrough)", "type": "cell-based, HIV-1", "conditions": "Human immunodeficiency virus 1, IIIB, MT4, 120 h, read-out: T174I BT EC50, MT4 cells, HIV-IIIb IN T174I BT (viral breakthrough), 5 days, CellTiter-Glo", "how_it_was_run": "as §1"}, "in vitro": {"assay": "in vitro", "conditions": "human, microsomes"}, "[1]": {"assay": "Hum MS stability (human microsomal stability half-life)", "conditions": "human microsomes"}, "[2]": {"conditions": "Human immunodeficiency virus 1, IIIB, MT4, 120 h"}}, "note": "Like-named read-outs stand apart in the source and are kept apart here.", "data": [{"smiles": "Cc1cc2nc(-c3ccc4c(c3)c(C3CCN(C5CC5)CC3)nn4C)sc2c(-c2ccc(Cl)cc2)c1[C@H](OC(C)(C)C)C(=O)O", "note": "[Compound 128, (S)-2-(tert-butoxy)-2-(7-(4-chloro-phenyl)-2-(3-(1-cyclopropylpiperidin-4-yl)-1-methyl-1H-indazol-5-yl)-5-methylbenzo[d]thiazol-6-yl) acetic acid]", "values": [{"measurement": "EC50", "setting": "HIV-IIIb IN T174I DE", "value": 0.511, "unit": "µM"}, {"measurement": "EC50", "setting": "HIV-IIIb (wildtype); Human immunodeficiency virus 1, 120 h, MT4 cells, HIV-IIIb wildtype, 5 days, CellTiter-Glo", "value": 0.004, "unit": "µM"}, {"measurement": "EC50", "setting": "HIV-IIIb IN T174I BT", "value": 0.292, "unit": "µM"}, {"measurement": "half-life", "setting": "in vitro", "value": 4.03, "unit": "h"}]}, {"smiles": "Cc1cc2nc(-c3ccc4c(n3)c(C3CCN(C5COC5)CC3)nn4C)sc2c(-c2ccc(Cl)cc2)c1[C@H](OC(C)(C)C)C(=O)O", "note": "[Compound 175, (S)-2-(tert-butoxy)-2-(7-(4-chloro-phenyl)-5-methyl-2-(1-methyl-3-(1-(oxetan-3-yl)piperidin-4-yl)-1H-pyrazolo [4,3-b]pyridin-5-yl)benzo[d]thiazol-6-yl) acetic acid]", "values": [{"measurement": "EC50", "setting": "HIV-IIIb IN T174I DE", "value": 0.252, "unit": "µM"}, {"measurement": "half-life", "setting": "[1]", "value": 5.95, "unit": "h"}, {"measurement": "EC50", "setting": "HIV-IIIb (wildtype); [2]", "value": 0.003, "unit": "µM"}, {"measurement": "EC50", "setting": "HIV-IIIb IN T174I BT", "value": 0.122, "unit": "µM"}]}, {"smiles": "Cc1cc2nc(-c3ccc4c(n3)c(C3CCN(C5CN(C)C5)CC3)nn4C)sc2c(-c2ccc(Cl)cc2)c1[C@H](OC(C)(C)C)C(=O)O", "note": "[Compound 184, (S)-2-(tert-butoxy)-2-(7-(4-chloro-phenyl)-5-methyl-2-(1-methyl-3-(1-(1-methylazetidin-3-yl)piperidin-4-yl)-1H-pyrazolo [4,3-b]pyridin-5-yl)benzo[d]thiazol-6-yl) acetic acid]", "values": [{"measurement": "EC50", "setting": "HIV-IIIb IN T174I DE", "value": 0.218, "unit": "µM"}, {"measurement": "half-life", "setting": "[1]", "value": 0.767, "unit": "h"}, {"measurement": "EC50", "setting": "HIV-IIIb (wildtype); [2]", "value": 0.004, "unit": "µM"}, {"measurement": "EC50", "setting": "HIV-IIIb IN T174I BT", "value": 0.103, "unit": "µM"}]}, {"smiles": "CC(=O)N1CC(N2CCC(c3nn(C)c4ccc(-c5nc6cc(C)c([C@H](OC(C)(C)C)C(=O)O)c(-c7ccc(Cl)cc7)c6s5)nc34)CC2)C1", "note": "[Compound 185, (S)-2-(2-(3-(1-(1-acetylazetidin-3-yl)piperidin-4-yl)-1-methyl-1H-pyrazolo[4,3-b]pyridin-5-yl)-7-(4-chlorophenyl)-5-methylbenzo [d]thiazol-6-yl)-2-(tert-butoxy) acetic acid]", "values": [{"measurement": "EC50", "setting": "HIV-IIIb IN T174I DE", "value": 0.066, "unit": "µM"}, {"measurement": "half-life", "setting": "[1]", "value": 0.6, "unit": "h"}, {"measurement": "EC50", "setting": "HIV-IIIb (wildtype); [2]", "value": 0.001, "unit": "µM"}, {"measurement": "EC50", "setting": "HIV-IIIb IN T174I BT", "value": 0.035, "unit": "µM"}]}, {"smiles": "Cc1cc2nc(-c3ccc4c(n3)c(C3CCN([C@H]5C[C@@H](O)C5)CC3)nn4C)sc2c(-c2ccc(Cl)cc2)c1[C@H](OC(C)(C)C)C(=O)O", "note": "[Compound 188, (S)-2-(tert-butoxy)-2-(7-(4-chloro-phenyl)-2-(3-(1-((1s,3s)-3-hydroxy-cyclobutyl)piperidin-4-yl)-1-methyl-1H-pyrazolo[4,3-b]pyridin-5-yl)-5-methylbenzo[d]thiazol-6-yl) acetic acid]", "values": [{"measurement": "EC50", "setting": "HIV-IIIb IN T174I DE", "value": 0.391, "unit": "µM"}, {"measurement": "half-life", "setting": "[1]", "value": 2.53, "unit": "h"}, {"measurement": "EC50", "setting": "HIV-IIIb (wildtype); [2]", "value": 0.011, "unit": "µM"}, {"measurement": "EC50", "setting": "HIV-IIIb IN T174I BT", "value": 0.196, "unit": "µM"}]}, {"smiles": "Cc1cc2nc(-c3ccc4c(n3)c(N3CCN([C@H]5C[C@@H](O)C5)CC3)nn4C)sc2c(-c2ccc(Cl)cc2)c1[C@H](OC(C)(C)C)C(=O)O", "note": "[Compound 197, (S)-2-(tert-butoxy)-2-(7-(4-chloro-phenyl)-2-(3-(4-((1s,3s)-3-hydroxy-cyclobutyl)piperazin-1-yl)-1-methyl-1H-pyrazolo[4,3-b]pyridin-5-yl)-5-methylbenzo[d]thiazol-6-yl) acetic acid]", "values": [{"measurement": "EC50", "setting": "HIV-IIIb IN T174I DE", "value": 2.68, "unit": "µM"}, {"measurement": "half-life", "setting": "[1]", "value": 2.8, "unit": "h"}, {"measurement": "EC50", "setting": "HIV-IIIb (wildtype); [2]", "value": 0.018, "unit": "µM"}, {"measurement": "EC50", "setting": "HIV-IIIb IN T174I BT", "value": 0.936, "unit": "µM"}]}]}
